Measurements published in PMC5881531 (FEBS Open Bio, 2018).

Target: T1, Dihydroorotate dehydrogenase of Trypanosoma brucei (TbDHODH), FMN-free form (Trypanosoma brucei, UniProt Q57U83, A115V)
T1 construct: gene Tb927.5.3830
Assay: biochemical

T1 sequence (Q57U83 whole entry A115V): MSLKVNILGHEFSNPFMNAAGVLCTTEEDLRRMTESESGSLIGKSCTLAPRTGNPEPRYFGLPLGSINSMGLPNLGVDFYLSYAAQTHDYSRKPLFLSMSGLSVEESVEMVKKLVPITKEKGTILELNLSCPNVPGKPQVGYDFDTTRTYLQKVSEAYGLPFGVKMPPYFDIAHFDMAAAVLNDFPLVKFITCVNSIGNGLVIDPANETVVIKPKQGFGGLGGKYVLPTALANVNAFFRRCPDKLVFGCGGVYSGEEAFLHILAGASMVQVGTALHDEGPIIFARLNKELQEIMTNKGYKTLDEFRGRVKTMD

## Cc1cc2nc3c(=O)[nH]c(=O)nc-3n(C[C@H](O)[C@H](O)[C@H](O)COP(=O)(O)O)c2cc1C [FMN]
  Kd: 12 nM
